Assay: IV study in dogs: plasma insulin and glucose after IV injection of human insulin
Assay type: in vivo, Mongrel dogs
Procedure: Oral bioavailability of insulin composition was determined using an IV study followed by an oral crossover study and the relative areas of under the curve, plasma half life, Cmax, and Tmax was calculated. […] Following data collection, plasma concentration, plasma half-life, peak concentration (Cmax) and time to reach Cmax (tmax) were determined. From the areas under the curve, percent oral bioavailability was determined.

[1] = dog #71, IV 0.01 mg/kg, 120 min
[2] = dog #71, IV 0.01 mg/kg, 180 min
[3] = dog #71, IV 0.01 mg/kg, 240 min
[4] = dog #72, IV 0.01 mg/kg, 120 min
[5] = dog #72, IV 0.01 mg/kg, 180 min
[6] = dog #72, IV 0.01 mg/kg, 240 min

human insulin: human insulin given by IV injection (0.01 mg/kg) as reference in the dog study
Plasma Glucose (dog #71, IV 0.01 mg/kg, 2 min): 89 mg/dL
Plasma Insulin (dog #71, IV 0.01 mg/kg, 2 min): 50.2 ng/mL
Plasma Glucose (dog #71, IV 0.01 mg/kg, 5 min): 82 mg/dL
Plasma Insulin (dog #71, IV 0.01 mg/kg, 5 min): 26.6 ng/mL
Plasma Glucose (dog #71, IV 0.01 mg/kg, 10 min): 57 mg/dL
Plasma Glucose (dog #71, IV 0.01 mg/kg, 15 min): 46 mg/dL
Plasma Insulin (dog #71, IV 0.01 mg/kg, 15 min): 10.1 ng/mL
Plasma Glucose (dog #71, IV 0.01 mg/kg, 20 min): 41 mg/dL
Plasma Glucose (dog #71, IV 0.01 mg/kg, 25 min): 42 mg/dL
Plasma Insulin (dog #71, IV 0.01 mg/kg, 25 min): 5.9 ng/mL
Plasma Glucose (dog #71, IV 0.01 mg/kg, 40 min): 39 mg/dL
Plasma Glucose (dog #71, IV 0.01 mg/kg, 60 min): 48 mg/dL
Plasma Glucose [1]: 69 mg/dL
Plasma Insulin [1]: 0.19 ng/mL
Plasma Glucose [2]: 87 mg/dL
Plasma Insulin [2]: 0.08 ng/mL
Plasma Glucose [3]: 86 mg/dL
Plasma Insulin [3]: 0.08 ng/mL
Plasma Glucose (dog #72, IV 0.01 mg/kg, 2 min): 89 mg/dL
Plasma Insulin (dog #72, IV 0.01 mg/kg, 2 min): 27.3 ng/mL
Plasma Glucose (dog #72, IV 0.01 mg/kg, 5 min): 60 mg/dL
Plasma Insulin (dog #72, IV 0.01 mg/kg, 5 min): 21.4 ng/mL
Plasma Glucose (dog #72, IV 0.01 mg/kg, 10 min): 31 mg/dL
Plasma Glucose (dog #72, IV 0.01 mg/kg, 15 min): 28 mg/dL
Plasma Glucose (dog #72, IV 0.01 mg/kg, 20 min): 35 mg/dL
Plasma Insulin (dog #72, IV 0.01 mg/kg, 20 min): 3.4 ng/mL
Plasma Glucose (dog #72, IV 0.01 mg/kg, 25 min): 24 mg/dL
Plasma Glucose (dog #72, IV 0.01 mg/kg, 40 min): 21 mg/dL
Plasma Insulin (dog #72, IV 0.01 mg/kg, 40 min): 0.7 ng/mL
Plasma Glucose (dog #72, IV 0.01 mg/kg, 60 min): 33 mg/dL
Plasma Insulin (dog #72, IV 0.01 mg/kg, 60 min): 0.2 ng/mL
Plasma Glucose [4]: 68 mg/dL
Plasma Insulin [4]: 0.04 ng/mL
Plasma Glucose [5]: 102 mg/dL
Plasma Insulin [5]: 0 ng/mL
Plasma Glucose [6]: 99 mg/dL
Plasma Insulin [6]: 0.04 ng/mL

From patent US8414914B2, “Compositions for mucosal delivery of agents” (Virun, Inc., priority 2004, dated 2013)
